Test results reported in PMC11575553 (Chemical Science, 2024).

What follows are substances tested on SARS-CoV-2 dimerization loop (DL) RNA. Conditions: 2.5 μM peptide; 0.010 M HEPES pH 7.0, 0.30 M NaCl; average of two replicates.
Assay type: binding

Row | Substance | SPR response relative to parent peptide MG-FSS-m1
1 | MGCAQLRKQL(pCaaF)Y (sidechain bridge or staple) [Peptide K1A] | comparable
2 | MGCKALRKQL(pCaaF)Y (sidechain bridge or staple) [Peptide Q2A] | substantially lower
3 | MGCKQARKQL(pCaaF)Y (sidechain bridge or staple) [Peptide L3A] | substantially lower
4 | MGCKQLAKQL(pCaaF)Y (sidechain bridge or staple) [Peptide R4A] | comparable
5 | MGCKQLRAQL(pCaaF)Y (sidechain bridge or staple) [Peptide K5A] | comparable
6 | MGCKQLRKAL(pCaaF)Y (sidechain bridge or staple) [Peptide Q6A] | substantially higher
7 | MGCKQLRKQA(pCaaF)Y (sidechain bridge or staple) [Peptide L7A] | lower
